This is an account of results in patent US20260216170A1, “TETRAHYDROISOQUINOLINE HETEROBIFUNCTIONAL BCL-XL DEGRADERS” (Treeline Biosciences, Inc., priority 2023, published 2026).

The target in the test is T1, Human BCL-XL protein (N-terminal HiBiT tagged BCL-XL expressed in HT1080 cells) (Homo sapiens, UniProt Q07817).
T1 construct: expressed in transfected cells; host or cells: HT-1080 (ATCC CCL-121), stably transduced with lentivirus pLV-UBC-N-HiBiT-BCL-XL-PGK-puro and selected with puromycin
T1 sequence (Q07817 whole entry): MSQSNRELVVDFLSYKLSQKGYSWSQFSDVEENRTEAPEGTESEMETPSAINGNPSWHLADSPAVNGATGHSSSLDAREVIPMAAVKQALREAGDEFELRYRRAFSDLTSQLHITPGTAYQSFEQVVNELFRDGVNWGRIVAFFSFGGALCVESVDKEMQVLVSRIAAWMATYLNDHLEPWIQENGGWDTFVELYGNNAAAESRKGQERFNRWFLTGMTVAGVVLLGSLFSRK
Kind of test: HiBiT Based Degradation Assay. Format: cell-based. The conditions noted are these: 24 hours incubation; for DC50: BCL-XL degradation, HT1080 cells expressing N-HiBiT-BCL-XL, normalized with DMSO control, geometric mean for multiple data points, read-out: EC50 (24 h); for Ymin (24 h): bottom of BCL-XL degradation curve (remaining HiBiT-BCL-XL signal vs DMSO control), HT1080 cells. In short, it runs like this: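 BCL-XL degradation was read as Nano-Glo HiBiT lytic luminescence relative to DMSO after a 24 h compound treatment of HT1080 cells carrying stably integrated N-HiBiT-BCL-XL. EC50 values come from four-parameter logistic curves, with the hook-curve minimum fixed as bottom, and are geometric means where tested repeatedly.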

As for `Cc1cc(OCCCC2CCN(CCOc3ccc4c(C5CCC(=O)NC5=O)nn(C)c4c3)CC2)ccc1-c1ccc(N2CCc3cccc(C(=O)Nc4nc5ccccc5s4)c3C2)nc1C(=O)O` (stereo not shown) [Compound 178, 6-[8-(1,3-benzothiazol-2-ylcarbamoyl)-3,4-dihydro-1H-isoquinolin-2-yl]-3-[4-[3-[1-[2-[3-(2,6-dioxo-3-piperidyl)-1-methyl-indazol-6-yl]oxyethyl]-4-piperidyl]propoxy]-2-methyl-phenyl]pyridine-2-carboxylic acid], the DC50 is under 10 nM and the “Ymin (24 h)” value was “A (Ymin < 30%)”.

In the case of `Cc1cc(OCCCC2CCN(CCNc3ccc4c(C5CCC(=O)NC5=O)nn(C)c4c3)CC2)ccc1-c1ccc(N2CCc3cccc(C(=O)Nc4nc5ccccc5s4)c3C2)nc1C(=O)O` (stereo not shown) [Compound 179, 6-(8-(benzo[d]thiazol-2-ylcarbamoyl)-3,4-dihydroisoquinolin-2(1H)-yl)-3-(4-(3-(1-(2-((3-(2,6-dioxopiperidin-3-yl)-1-methyl-1H-indazol-6-yl)amino)ethyl)piperidin-4-yl)propoxy)-2-methylphenyl)picolinic acid], the DC50 is under 10 nM and the “Ymin (24 h)” value was “A (Ymin < 30%)”.

For the compound `COc1c(NC(=O)CN2CCC(CCCOc3cccc(-c4ccc(N5CCc6ccnc(C(=O)Nc7nc8ccccc8s7)c6C5)nc4C(=O)O)c3C(F)(F)F)CC2)ccc2c(C3CCC(=O)NC3=O)nn(C)c12` (stereo not shown) [Compound 180, 6-[8-(1,3-benzothiazol-2-ylcarbamoyl)-3,4-dihydro-1H-2,7-naphthyridin-2-yl]-3-[3-[3-[1-[2-[[3-(2,6-dioxo-3-piperidyl)-7-methoxy-1-methyl-indazol-6-yl]amino]-2-oxo-ethyl]-4-piperidyl]propoxy]-2-(trifluoromethyl)phenyl]pyridine-2-carboxylic acid], the DC50 is 10 to 100 nM and the “Ymin (24 h)” value is reported as “B (30% ≤ Ymin < 50%)”.

As to `COc1c(NC(=O)CN2CCC3(CC2)CC(COc2ccc(-c4ccc(N5CCc6ccnc(C(=O)Nc7nc8ccccc8s7)c6C5)nc4C(=O)O)c(C(F)(F)F)c2)C3)ccc2c(C3CCC(=O)NC3=O)nn(C)c12` (stereo not shown) [Compound 181, 6-[8-(1,3-benzothiazol-2-ylcarbamoyl)-3,4-dihydro-1H-2,7-naphthyridin-2-yl]-3-[4-[[7-[2-[[3-(2,6-dioxo-3-piperidyl)-7-methoxy-1-methyl-indazol-6-yl]amino]-2-oxo-ethyl]-7-azaspiro[3.5]nonan-2-yl]methoxy]-2-(trifluoromethyl)phenyl]pyridine-2-carboxylic acid], the DC50 was 10 to 100 nM and the “Ymin (24 h)” value is on record as “B (30% ≤ Ymin < 50%)”.

With `Cn1nc(C2CCC(=O)NC2=O)c2ccc(NC(=O)CN3CCC(CCCOc4cccc(-c5ccc(N6CCc7cccc(C(=O)Nc8nc9ccccc9s8)c7C6)nc5C(=O)O)c4C(F)(F)F)CC3)c(F)c21` (stereo not shown) [Compound 182], the DC50 is 10 to 100 nM and the “Ymin (24 h)” value is reported as “B (30% ≤ Ymin < 50%)”.

With `Cn1nc(C2CCC(=O)NC2=O)c2ccc(NC(=O)CN3CCC(CCCOc4ccc(-c5ccc(N6CCc7cccc(C(=O)Nc8nc9ccccc9s8)c7C6)nc5C(=O)O)c(C(F)(F)F)c4)CC3)c(F)c21` (stereo not shown) [Compound 183], the DC50 fell in the range of 10 to 100 nM and the “Ymin (24 h)” value is on record as “B (30% ≤ Ymin < 50%)”.

With `COc1c(NC(=O)CN2CCC3(CC2)CC(Oc2cccc(-c4ccc(N5CCc6ccnc(C(=O)Nc7nc8ccccc8s7)c6C5)nc4C(=O)O)c2C)C3)ccc2c(C3CCC(=O)NC3=O)nn(C)c12` (stereo not shown) [Compound 184, 6-[8-(1,3-benzothiazol-2-ylcarbamoyl)-3,4-dihydro-1H-2,7-naphthyridin-2-yl]-3-[3-[[7-[2-[[3-(2,6-dioxo-3-piperidyl)-7-methoxy-1-methyl-indazol-6-yl]amino]-2-oxo-ethyl]-7-azaspiro[3.5]nonan-2-yl]oxy]-2-methyl-phenyl]pyridine-2-carboxylic acid], the DC50 was under 10 nM and the “Ymin (24 h)” value is “B (30% ≤ Ymin < 50%)”.

Regarding `Cn1nc(C2CCC(=O)NC2=O)c2ccc(NC(=O)CN3CCC4(CC3)CC(COc3cccc(-c5ccc(N6CCc7cccc(C(=O)Nc8nc9ccccc9s8)c7C6)nc5C(=O)O)c3C(F)(F)F)C4)c(F)c21` (stereo not shown) [Compound 185], the DC50 was 10 to 100 nM and the “Ymin (24 h)” value was “B (30% ≤ Ymin < 50%)”.

Consider `Cn1nc(C2CCC(=O)NC2=O)c2ccc(NC(=O)CN3CCC4(CC3)CC(COc3ccc(-c5ccc(N6CCc7cccc(C(=O)Nc8nc9ccccc9s8)c7C6)nc5C(=O)O)c(C(F)(F)F)c3)C4)c(F)c21` (stereo not shown) [Compound 186], for which the DC50 was 10 to 100 nM and the “Ymin (24 h)” value is reported as “B (30% ≤ Ymin < 50%)”.

In the case of `COc1c(NC(=O)CN2CCC3(CC2)CC(Oc2ccc(-c4ccc(N5CCc6ccnc(C(=O)Nc7nc8ccccc8s7)c6C5)nc4C(=O)O)c(C)c2)C3)ccc2c(C3CCC(=O)NC3=O)nn(C)c12` (stereo not shown) [Compound 187, 6-[8-(1,3-benzothiazol-2-ylcarbamoyl)-3,4-dihydro-1H-2,7-naphthyridin-2-yl]-3-[4-[[7-[2-[[3-(2,6-dioxo-3-piperidyl)-7-methoxy-1-methyl-indazol-6-yl]amino]-2-oxo-ethyl]-7-azaspiro[3.5]nonan-2-yl]oxy]-2-methyl-phenyl]pyridine-2-carboxylic acid], the DC50 is under 10 nM and the “Ymin (24 h)” value was “A (Ymin < 30%)”.

With `Cn1nc(C2CCC(=O)NC2=O)c2ccc(NC(=O)CN3CCC4(CC3)CC(Oc3cccc(-c5ccc(N6CCc7cccc(C(=O)Nc8nc9ccccc9s8)c7C6)nc5C(=O)O)c3C(F)(F)F)C4)c(F)c21` (stereo not shown) [Compound 188, 6-(8-(benzo[d]thiazol-2-ylcarbamoyl)-3,4-dihydroisoquinolin-2(1H)-yl)-3-(3-((7-(2-((3-(2,6-dioxopiperidin-3-yl)-7-fluoro-1-methyl-1H-indazol-6-yl)amino)-2-oxoethyl)-7-azaspiro[3.5]nonan-2-yl)oxy)-2-(trifluoromethyl)phenyl)picolinic acid], the DC50 is under 10 nM and the “Ymin (24 h)” value was “B (30% ≤ Ymin < 50%)”.

Consider `Cn1nc(C2CCC(=O)NC2=O)c2ccc(NC(=O)CN3CCC4(CC3)CC(Oc3ccc(-c5ccc(N6CCc7cccc(C(=O)Nc8nc9ccccc9s8)c7C6)nc5C(=O)O)c(C(F)(F)F)c3)C4)c(F)c21` (stereo not shown) [Compound 189], for which the DC50 is under 10 nM and the “Ymin (24 h)” value was “B (30% ≤ Ymin < 50%)”.

Turning to `Cc1c(OC2CC3(CCN(CC(=O)Nc4ccc5c(C6CCC(=O)NC6=O)nn(C)c5c4F)CC3)C2)cccc1-c1ccc(N2CCc3cccc(C(=O)Nc4nc5ccccc5s4)c3C2)nc1C(=O)O` (stereo not shown) [Compound 190, 6-(8-(benzo[d]thiazol-2-ylcarbamoyl)-3,4-dihydroisoquinolin-2(1H)-yl)-3-(3-((7-(2-((3-(2,6-dioxopiperidin-3-yl)-7-fluoro-1-methyl-1H-indazol-6-yl)amino)-2-oxoethyl)-7-azaspiro[3.5]nonan-2-yl)oxy)-2-methylphenyl)picolinic acid], the DC50 is under 10 nM and the “Ymin (24 h)” value is given as “B (30% ≤ Ymin < 50%)”.

As to `Cc1cc(OC2CC3(CCN(CC(=O)Nc4ccc5c(C6CCC(=O)NC6=O)nn(C)c5c4F)CC3)C2)ccc1-c1ccc(N2CCc3cccc(C(=O)Nc4nc5ccccc5s4)c3C2)nc1C(=O)O` (stereo not shown) [Compound 191], the DC50 was under 10 nM and the “Ymin (24 h)” value is reported as “B (30% ≤ Ymin < 50%)”.

For the compound `Cn1nc(C2CCC(=O)NC2=O)c2ccc(NC(=O)CN3CCC4(CC3)CC(Oc3cccc(-c5ccc(N6CCc7cccc(C(=O)Nc8nc9ccccc9s8)c7C6)nc5C(=O)O)c3C(F)(F)F)C4)nc21` (stereo not shown) [Compound 192, 6-(8-(benzo[d]thiazol-2-ylcarbamoyl)-3,4-dihydroisoquinolin-2(1H)-yl)-3-(3-((7-(2-((3-(2,6-dioxopiperidin-3-yl)-1-methyl-1H-pyrazolo[3,4-b]pyridin-6-yl)amino)-2-oxoethyl)-7-azaspiro[3.5]nonan-2-yl)oxy)-2-(trifluoromethyl)phenyl)picolinic acid], the DC50 is under 10 nM and the “Ymin (24 h)” value is recorded as “B (30% ≤ Ymin < 50%)”.

Consider `Cn1nc(C2CCC(=O)NC2=O)c2ccc(NC(=O)CN3CCC4(CC3)CC(Oc3ccc(-c5ccc(N6CCc7cccc(C(=O)Nc8nc9ccccc9s8)c7C6)nc5C(=O)O)c(C(F)(F)F)c3)C4)nc21` (stereo not shown) [Compound 193], for which the DC50 is 10 to 100 nM and the “Ymin (24 h)” value was “B (30% ≤ Ymin < 50%)”.

In the case of `Cc1c(OC2CC3(CCN(CC(=O)Nc4ccc5c(C6CCC(=O)NC6=O)nn(C)c5n4)CC3)C2)cccc1-c1ccc(N2CCc3cccc(C(=O)Nc4nc5ccccc5s4)c3C2)nc1C(=O)O` (stereo not shown) [Compound 194, 6-(8-(benzo[d]thiazol-2-ylcarbamoyl)-3,4-dihydroisoquinolin-2(1H)-yl)-3-(3-((7-(2-((3-(2,6-dioxopiperidin-3-yl)-1-methyl-1H-pyrazolo[3,4-b]pyridin-6-yl)amino)-2-oxoethyl)-7-azaspiro[3.5]nonan-2-yl)oxy)-2-methylphenyl)picolinic acid], the DC50 is under 10 nM and the “Ymin (24 h)” value was “B (30% ≤ Ymin < 50%)”.

For the compound `Cc1cc(OC2CC3(CCN(CC(=O)Nc4ccc5c(C6CCC(=O)NC6=O)nn(C)c5n4)CC3)C2)ccc1-c1ccc(N2CCc3cccc(C(=O)Nc4nc5ccccc5s4)c3C2)nc1C(=O)O` (stereo not shown) [Compound 195], the DC50 is under 10 nM and the “Ymin (24 h)” value was “B (30% ≤ Ymin < 50%)”.

For `Cn1nc(C2CCC(=O)NC2=O)c2ccc(NC(=O)CN3CCC4(CCC(Oc5cccc(-c6ccc(N7CCc8cccc(C(=O)Nc9nc%10ccccc%10s9)c8C7)nc6C(=O)O)c5C(F)(F)F)CC4)CC3)cc21` (stereo not shown) [Compound 196], the DC50 is under 10 nM and the “Ymin (24 h)” value is “B (30% ≤ Ymin < 50%)”.

For the compound `Cn1nc(C2CCC(=O)NC2=O)c2ccc(NC(=O)CN3CCC4(CCC(Oc5ccc(-c6ccc(N7CCc8cccc(C(=O)Nc9nc%10ccccc%10s9)c8C7)nc6C(=O)O)c(C(F)(F)F)c5)CC4)CC3)cc21` (stereo not shown) [Compound 197], the DC50 was under 10 nM and the “Ymin (24 h)” value is recorded as “B (30% ≤ Ymin < 50%)”.
